Laboratory results published in patent US8983257B2, “Therapeutic light delivery apparatus, method, and system” (Nomir Medical Technologies, Inc., priority 2002, dated 2015).
Where “and” joins values, the source holds several entries; their conditions need not be identical. Identical values can stand only once. Entries after “also recorded” stand apart in the source; their conditions may differ.

How the values were obtained:
[1] = tested on: MRSA colonization in the nares; assay: Human study Part One: nasal colonization of MRSA, NOVEON laser alone, with H2O2 or with topical erythromycin; format: in vivo, Staphylococcus aureus; conditions: for MRSA Average: per patient, mean of triplicate plates, all arms with NOVEON laser
Experimental: (§1) This investigational protocol was an open-label study of subjects who are colonized with MRSA in the nares (nostril). The study was done in two parts.
(§2) In this human study, three arms were produced. […] This was done on day 1 and again on day three; and Arm #3: ⅓ of the subjects were treated with the laser and then a topical antibiotic three times a day for five days. Prior to enrollment in this study, prospective subjects met all of the following criteria: age≧18 years and ≦70 years of age; previous positive MRSA culture; negative urine pregnancy test or post-menopausal for one year; willing to comply with study requirements, including return visits and self-application of topical antibiotics; and willing to provide informed consent to participate. Prospective subjects were excluded from this study if any of the following criteria were met: pregnancy; patients who are severely immunocompromised (such as may occur in AIDS, renal transplant regimens, immunosuppressed states consequent to malignancy or agents used in rendering oncologic care, or who suffer from end stage renal disease); diabetic patients; allergy to antimicrobials being used in the study (group 3).
(§3) All participants underwent an initial quantitative assessment for nasal carriage of S. aureus, during their first visit. Each participant had the anterior nares (each nostril) sampled for culture with a circular movement (three rotations on each side) of a sterile wood applicator plain Rayon® tipped swab in each nostril and placed in a labeled tube. 2 ml of room temp phosphate buffered saline was placed in the tube after the removal of the swab (to completely cover the swab in the tube). Each swab was then placed back in the tube and the tube was then vortexed for 15 seconds to disperse isolates of MRSA and/or MSSA into the PBS solution. Aliquots of PBS from the tube were plated in the following manner: 100 μl from each tube was lawn plated in triplicate (3×) on selective Chromogenic MRSA And MSSA agar. Plates were placed in incubator within 30 minutes of the plating procedure, and colonies were counted manually, and recorded 18 hrs after plating.
(§4) On day one of the study, all subjects underwent this exact procedure in arms 1 and 2 of the study two minutes before the laser procedure. They again were sampled in the same manner 2 minutes after the laser procedure. In the third arm of the study, they were swabbed two minutes before the procedure and the first antibiotic administration was completed after the laser therapy. The post/laser swab sample was taken for this arm 20 min later.
(§5) On day three of the study, all subjects from arms one two and three underwent the exact same procedures as day 1 of the study.
(§6) On day five all subjects from all arms underwent just one swabbing per nostril with the exact same sampling procedure one time.
(§7) 3% OTC hydrogen peroxide was applied to a cotton pledget for application to the subject prior to irradiation. This was inserted in the nose for 120 seconds and then removed. The subjects were then given doses of phototherapeutic near infrared radiation as described.
(§8) The subjects were first given doses of phototherapeutic near infrared radiation as described. […] The swab was inserted approximately 1 cm in to the anterior nares and rotated 360 degrees several times and removed. Patients were instructed to perform the exact application procedure 3 times a day for the remaining 5 days.
(§9) The NOVEON™ laser was used for two (2) six-minute treatments in each nostril on day (1) and day (3) of the study.
(§10) The laser was calibrated before the first treatment of the day. Intermittent temperature testing of the treatment site was performed on each subject using a noncontact infrared thermometer (Raytek Minitemp), 30-60 second intervals. If a temperature of 110 F degrees was reached, or the patient complained of pain, the laser treatment was interrupted and only resumed when the patient was comfortable.

[2] = tested on: MSSA colonies in the nares; assay: Human study Part One: nasal colonization of MSSA, NOVEON laser alone, with H2O2 or with topical erythromycin; format: in vivo, Staphylococcus aureus; conditions: per patient, mean of triplicate plates, all arms with NOVEON laser
Experimental: as §1, §2, §3, §4, §5, §6, §7, §8, §9, §10

[3] = tested on: MRSA; assay: MRSA CFU counts on agar with trimethoprim or erythromycin after sub-lethal NIMELS laser (Example VIII); format: cell-based, Staphylococcus aureus; conditions: plates B-4 1 to 5
From the text: The following illustrates the general antibacterial methods according to the invention, using a MRSA model for the in vitro Experiments V and VIII-XII.
a) μ1 is sub-lethal dosimetry from the NIMEL laser system on MRSA as a control and;

[4] = tested on: MRSA; assay: MRSA/antimicrobial potentiation Experiment 4: CFU with or without methicillin, penicillin G or erythromycin, groups A4 to F4; format: cell-based, Staphylococcus aureus; conditions: for Laser Effect (+Drug): ratio of AVG Exp with drug to Cont with drug; for Drug Effect / Fold increase in antibiotic sensitivity: 0.5 μg/ml penicillin G; for Drug Effect: ratio of AVG with drug to without drug; for AVG (CFU) / CFU/ml / CFU: agar with 0.5 μg/ml penicillin G
Experimental: Two different laser dosages based on an effective dose established in previous experiments were used to treat a saline-suspension of logarithmically growing MRSA, labeled A4 to F4.
After 24 hrs of growth at 37° C. colonies were counted.

[5] = Initial Analysis, Post-treatment swab, left nostril
[6] = Initial Analysis, Post-treatment swab, right nostril
[7] = Initial Analysis, Pre swab, left nostril
[8] = Initial Analysis, Pre swab, right nostril
[9] = Second Analysis, Post-treatment swab, left nostril
[10] = Second Analysis, Post-treatment swab, right nostril
[11] = Second Analysis, Pre swab, left nostril
[12] = Second Analysis, Pre swab, right nostril
[13] = Third Analysis, Swab, left nostril
[14] = Third Analysis, Swab, right nostril

OO [H2O2, hydrogen peroxide]
outcome of the Laser plus H2O2 arm (in words) ([1]; human subjects, 3% hydrogen peroxide in the nose for 120 seconds, then laser, day 1 and day 3): may have had some transient benefit in some of the patients, but no obvious long-term efficacy

OO [Peroxide]
MRSA Average [1, 5]: 0 CFU (2×) and 22 CFU and 1 CFU
MRSA Average [1, 6]: 0 CFU (2×) and 455 CFU and 2752 CFU
MRSA Average [1, 7]: 0 CFU (2×) and 63 CFU and 4 CFU
MRSA Average [1, 8]: 0 CFU (2×) and 30 CFU and 4032 CFU
MRSA Average [1, 9]: 0 CFU (3×) and 12 CFU
MRSA Average [1, 10]: 0 CFU (2×) and 114 CFU and 3347 CFU
MRSA Average [1, 11]: 0 CFU (2×) and 180 CFU and 17 CFU
MRSA Average [1, 12]: 0 CFU (2×) and 90 CFU and 3099 CFU
MRSA Average [1, 13]: 0 CFU (3×) and 827 CFU
MRSA Average [1, 14]: 0 CFU (2×) and 563 CFU and 3648 CFU
s. aureus Average [2, 5]: 0 CFU (2×) and 20 CFU and 1 CFU
s. aureus Average [2, 6]: 0 CFU and 506 CFU and 146 CFU and 3272 CFU
s. aureus Average [2, 7]: 1 CFU and 53 CFU and 17 CFU and 124 CFU
s. aureus Average [2, 8]: 0 CFU and 29 CFU and 285 CFU and 3996 CFU
s. aureus Average [2, 9]: 0 CFU (3×) and 10 CFU
s. aureus Average [2, 10]: 0 CFU and 126 CFU and 5 CFU and 3589 CFU
s. aureus Average [2, 11]: 1 CFU and 206 CFU and 4 CFU and 12 CFU
s. aureus Average [2, 12]: 1 CFU and 94 CFU and 257 CFU and 4373 CFU
s. aureus Average [2, 13]: 1 CFU and 868 CFU and 28 CFU and 0 CFU
s. aureus Average [2, 14]: 1 CFU and 586 CFU and 52 CFU and 3493 CFU

COc1cc(Cc2cnc(N)nc2N)cc(OC)c1OC [Trimethoprim]
MRSA colony count, CONTROL (no laser), trimeth 2 ug/ml ([3]; no laser, agar with trimethoprim 2 ug/ml): 145 and 213 and 198 and 240 and 220
MRSA colony count, EXPERIMENTAL, trimeth 2 ug/ml ([3]; sub-lethal NIMELS laser, then plated on agar with trimethoprim 2 ug/ml): 100 and 110

Penicillin
Laser Effect (+Drug) ([4]; Group C4, 0.5 μg/ml penicillin G): 0.28
Drug Effect ([4]; Group C4, Cont (no laser)): 0.75
AVG (CFU) ([4]; Group C4, Cont (no laser)): 108.4 CFU
CFU/ml ([4]; Group C4, Cont (no laser)): 3.25E+08 CFU/ml
CFU ([4]; Group C4, Cont (no laser), replicate plates 1-5, 24 hrs 37° C.): 106 CFU and 99 CFU and 102 CFU and 113 CFU and 122 CFU
Drug Effect ([4]; Group C4, Exp (laser treated)): 0.34
AVG (CFU) ([4]; Group C4, Exp (laser treated)): 30.4 CFU
CFU/ml ([4]; Group C4, Exp (laser treated)): 9.12E+07 CFU/ml
CFU ([4]; Group C4, Exp (laser treated), replicate plates 1-5): 25 CFU and 33 CFU (2×) and 19 CFU and 42 CFU
Laser Effect (+Drug) ([4]; Group D4, 0.5 μg/ml penicillin G): 0.18
Drug Effect ([4]; Group D4, Cont (no laser)): 1.07
AVG (CFU) ([4]; Group D4, Cont (no laser)): 132.8 CFU
CFU/ml ([4]; Group D4, Cont (no laser)): 3.98E+08 CFU/ml
CFU ([4]; Group D4, Cont (no laser), replicate plates 1-5, 24 hrs 37° C.): 101 CFU and 111 CFU and 138 CFU and 132 CFU and 182 CFU
Drug Effect ([4]; Group D4, Exp (laser treated)): 0.31
AVG (CFU) ([4]; Group D4, Exp (laser treated)): 23.8 CFU
CFU/ml ([4]; Group D4, Exp (laser treated)): 7.14E+07 CFU/ml
CFU ([4]; Group D4, Exp (laser treated), replicate plates 1-5): 14 CFU and 23 CFU and 22 CFU and 29 CFU and 31 CFU
Fold increase in antibiotic sensitivity ([4]; grouping C4): 2.21
Fold increase in antibiotic sensitivity ([4]; grouping D4): 3.45
synergy or potentiation with NIMELS in growth inhibition of MRSA colonies (in words) ([4]; sub-lethal NIMELS dosimetry, bar chart figure): synergistic effects; also recorded: potentiated by sub-lethal NIMELS dosimetry
reversal of MRSA resistance in vitro by dual wavelength NOVEON laser (in words) ([4]; temperature levels not lethal to the organism): successful reversal of MRSA resistance
